Results taken from US20230050846A1, “TREATMENT OF HEPATIC AND CARDIOVASCULAR DISORDERS” (LIFESEARCH, priority 2019, published 2023).
Peptide text beside a SMILES is read from it. * marks the point of attachment. Palmitoyl = CCCCCCCCCCCCCCCC(=O)*

What was measured:
[1] = biological target: T1, ecto-F1-ATPase (HepG2 cells) (Homo sapiens, UniProt P06576); test: ecto-F1-ATPase activity: extracellular ADP content, luciferin-luciferase assay; assay type: cell-based; conditions: HepG2, 5 min; for extracellular ADP concentration (ecto-F1-ATPase hydrolytic activity): peptide 0.1 to 5 μM (formula (I)) or 1 μM, effect blunted by IF1 1 μM
T1 construct: host or cells: HepG2
Procedure: The human hepatocyte cell line HepG2 was obtained from the American Type Culture Collection (#HB-8065). HepG2 were cultured in Dulbecco's Modified Eagle's Medium (DMEM)—high glucose (D0822, Sigma-Aldrich) supplemented with 10% fetal bovine serum (10270098, Life technologies), 1% Penicillin-Streptomycin solution (P0781, Sigma-Aldrich). HepG2 cells were seeded on 24-well plates at 75,000 cells/well (Day 0). After 24 hours of growing, cells were serum starved for 24 h in order to synchronize cell cycles (Day 1) and then replaced additional 24 h in complete cell growth medium (Day 2). On day 3, cells were washed and equilibrated in fresh DMEM—high glucose without red phenol for 1 h (D1145, Sigma-Aldrich).
The cells were then treated 5 min with different concentration of peptide of formula (I) (0.1 to 5 μM), the peptide of formula (II) (1 μM), SCR (1 μM), SCR-K-16 (1 μM) or apoA-I (10 μg/mL) purified from human plasma.
Specific ecto-F1-ATPase activation was assessed in the presence of IF1 protein (1 μM), a natural inhibitor of F1-ATPase that interacts with the β-subunit to inhibit the ATP hydrolysis activity [5].
Supernatants were then collected and centrifuged (10,000 g, 5 min, 4° C.) and processed for ADP and ATP measurement. For ADP measurement, ADP was converted into ATP in 150 mM NaCl, 5 mM KCl, 2 mM MgCl2, pH 7.5 buffer containing 0.5 mM phosphoenolpyruvate (PEP) and pyruvate kinase (PK, 6 U per point for 15 min at 37° C.). For ATP measurement, 100 μl of sample was analyzed using the ATP bioluminescence assay kit CLS II (Roche Diagnostics). Samples were added to the ATP assay mixture and luminescence was measured in a microplate reader Infinite F500 (Tecan, Switzerland) for 1000 ms. The ATP standard curve was produced in the same medium as the samples and in the 10^−5 to 10^−10 M concentration range. The ADP concentration was then calculated as the ATP concentration following ADP conversion minus the basal ATP concentration. Data are expressed as nanomoles of ADP produced.

HepG2 cells = test: Cytotoxicity assay (MTT); assay type: cell-based, human
Procedure: HepG2 cells were seeded in a 96-well plate at a density of 10,000 cells/well in growth medium (DMEM high-glucose, 10% fetal bovine serum). The next day, growth medium was changed and the peptide of formula (I) was added once with ascending dose for 24 h, 48 or 72 h or for 48 h with repeating once in 24 h. Similarly, the peptide of formula (II) was added once with ascending dose for 24 h or 48 h or for 48 h with repeating once in 24 h. Cells were incubated for 4 h with 5 mg/L MTT and 100 μL of DMSO was added in the well. Absorbance was recorded at 570 and 660 nm using the microplate spectrophotometer system (Varioscan flash). Cell viability was calculated by subtracting the 570 nm absorbance to the background measured at 660 nm.

extracellular ADP concentration (ecto-F1-ATPase hydrolytic activity) [1] | concentration at which maximum efficacy on extracellular ADP is reached [1] | Compound | cell viability (MTT) (HepG2 cells; 0.1 to 25 μM, single dose 24 or 48 h, or multiple doses at 24 and 48 h) | cell viability (MTT) (HepG2 cells; 0.1 to 50 μM, single dose 24, 48 or 72 h, or multiple doses at 24 and 48 h)
stimulated |  | CCCCCCCCCCCCCCCC(=O)NCCCC[C@H](NC(=O)[C@H](CCC(=O)O)NC(=O)[C@H](CCCNC(=N)N)NC(=O)[C@H](CO)NC(=O)[C@H](CCC(N)=O)NC(=O)[C@H](C)NC(=O)[C@H](CCCNC(=N)N)NC(=O)[C@H](Cc1ccccc1)NC(=O)[C@H](Cc1ccc(O)cc1)NC(=O)[C@H](CCCNC(=N)N)NC(=O)[C@H](CCC(=O)O)NC(=O)[C@H](CCC(=O)O)NC(=O)[C@H](CCC(=O)O)NC(=O)[C@H](C)NC(=O)[C@H](CCC(N)=O)NC(=O)[C@H](CCC(=O)O)NC(=O)[C@H](CCCNC(=N)N)NC(=O)[C@H](CCCCN)NC(=O)CNC(=O)[C@H](Cc1ccccc1)NC(=O)[C@H](C)NC(=O)CNC(=O)CNC(=O)[C@H](C)NC(=O)[C@H](CCC(=O)O)NC(=O)[C@H](CCCNC(=N)N)NC(=O)[C@@H](NC(=O)[C@H](CO)NC(=O)CNC(=O)[C@H](C)NC(=O)CNC(=O)[C@H](CCCNC(=N)N)NC(C)=O)[C@@H](C)CC)C(N)=O [peptide of formula (II), CH3CO-[SEQ ID NO: 1]-K-[palmitoyl]-NH2] (Ac-RGAGSIREAGGAFGKREQAEEERYFRAQSREK(Palmitoyl)-NH2) | no impact | 
increased | 1 µM | Ac-RGAGSIREAGGAFGKREQAEEERYFRAQSRE-NH2 [peptide of formula (I), CH3CO-[SEQ ID NO: 1]-NH2] |  | no impact
